# Laboratory results published in patent US20070203091A1, “Methods and therapeutic compositions for improving liver, blood flow and skeletal muscle functions in advanced diseases and aging” (priority 2006, published 2007).
# What was measured:
# [1] = Cachexia markers Part I: serum albumin, pre-albumin, C-Reactive Protein, Phase I study; type: in vivo, human; conditions: for Serum Albumin, Observed Values, Mean / Serum Albumin, Observed Values, Median / C-Reactive Protein, Change from Baseline, Mean / C-Reactive Protein, Change from Baseline, Median / C-Reactive Protein, Observed Values, Mean / C-Reactive Protein, Observed Values, Median / Pre-albumin, Change from Baseline, Mean / Pre-albumin, Change from Baseline, Median / Pre-albumin, Observed Values, Mean / Pre-albumin, Observed Values, Median / Serum Albumin, Change from Baseline, Mean / Serum Albumin, Change from Baseline, Median: ITT; for C-Reactive Protein, Change from Baseline, Mean: test concentration or dose not given here; for C-Reactive Protein, Change from Baseline, Median: test concentration or dose not given here; for C-Reactive Protein, Observed Values, Mean: test concentration or dose not given here; for C-Reactive Protein, Observed Values, Median: test concentration or dose not given here; for Pre-albumin, Change from Baseline, Mean: test concentration or dose not given here; for Pre-albumin, Change from Baseline, Median: test concentration or dose not given here; for Pre-albumin, Observed Values, Mean: test concentration or dose not given here
# Text: The data for albumin, LDH and Bilirubin support claims reciting improvement in liver function by claimed treatment of a human host in need thereof. Serum LDH levels are an established strong independent negative prognostic factor, inversely related to survival in a great variety of adverse clinical conditions. In advanced refractory cancers, high LDH and low Karnofsky's performance status are among the strongest established independent negative prognostic factors of survival and quality of life (29).
# [2] = Voluntary (skeletal) muscle strength, hand grip strength, Phase I study; type: in vivo, human; conditions: for Skeletal Muscle Strength, Change from Baseline, Mean / Skeletal Muscle Strength, Change from Baseline, Median / Skeletal Muscle Strength, Observed Values, Mean / Skeletal Muscle Strength, Observed Values, Median: ITT; for Skeletal Muscle Strength, Change from Baseline, Mean: test concentration or dose not given here; for Skeletal Muscle Strength, Change from Baseline, Median: test concentration or dose not given here; for Skeletal Muscle Strength, Observed Values, Mean: test concentration or dose not given here; for Skeletal Muscle Strength, Observed Values, Median: test concentration or dose not given here
# Description: Procedure for measuring voluntary (skeletal) muscle strength-hand grip strength • 1. This measurement will be performed in the standing position (without support) using the patients' dominant hand in the horizontal outstretched position of 90 degrees to the body. • 2. Measurements will be taken using a calibrated and well maintained hand-held commercially available dynamometer. • 3. All measurements that are performed during the treatment period will be taken prior to placement of intravenous cannula and prior to study treatment administration • 4. Patients will undertake the hand-grip strength maneuver after initial training—with encouragement from the observer to “do their best”. This will be performed ×3 with no more than 30 seconds between attempts. • 5. The maximal value of the three attempts will be recorded as the hand-grip strength on that day. • 6. The testing will be performed and documented by the same individual member of the research team (as often as is practically possible). • The dynamometer instrument will be to the greatest extent possible the same instrument for any one patient throughout the study and will be initially calibrated and checked for accuracy prior to the study and thereafter on a regular basis. ATP Therapeutics, Inc.
# [3] = Week <1 (Screening), baseline, N=15
smiles,measurement,setting,value
"Nc1ncnc2c1ncn2[C@@H]1O[C@H](COP(=O)(O)OP(=O)(O)OP(=O)(O)O)[C@@H](O)[C@H]1O [ATP, adenosine 5′-triphosphate]","Serum Albumin, Observed Values, Mean","[1]; Week 8 (Infusion 8), N=7",3.3 g/dL
same,"Serum Albumin, Observed Values, Median","[1]; Week 8 (Infusion 8), N=7",3.4 g/dL
same,"C-Reactive Protein, Change from Baseline, Mean","[1]; Week 10 (Follow-up), N=4",6.0 mg/dL
same,"C-Reactive Protein, Change from Baseline, Median","[1]; Week 10 (Follow-up), N=4",-0.7 mg/dL
same,"C-Reactive Protein, Observed Values, Mean","[1]; Week 10 (Follow-up), N=4",11.2 mg/dL
same,"C-Reactive Protein, Observed Values, Median","[1]; Week 10 (Follow-up), N=4",7.0 mg/dL
same,"Pre-albumin, Change from Baseline, Mean","[1]; Week 10 (Follow-up), N=6",-8.3 mg/dL
same,"Pre-albumin, Change from Baseline, Median","[1]; Week 10 (Follow-up), N=6",-1.0 mg/dL
same,"Pre-albumin, Observed Values, Mean","[1]; Week 10 (Follow-up), N=6",20.2 mg/dL
same,"Pre-albumin, Observed Values, Median","[1]; Week 10 (Follow-up), N=6",18.5 mg/dL
same,"Serum Albumin, Change from Baseline, Mean","[1]; Week 10 (Follow-up), N=6",0.0 g/dL
same,"Serum Albumin, Change from Baseline, Median","[1]; Week 10 (Follow-up), N=6",-0.1 g/dL
same,"Serum Albumin, Observed Values, Mean","[1]; Week 10 (Follow-up), N=6",3.6 g/dL
same,"Serum Albumin, Observed Values, Median","[1]; Week 10 (Follow-up), N=6",3.7 g/dL
same,"C-Reactive Protein, Change from Baseline, Mean","[1]; Week 13 (Follow-up), N=5",5.3 mg/dL
same,"C-Reactive Protein, Change from Baseline, Median","[1]; Week 13 (Follow-up), N=5",0.0 mg/dL
same,"C-Reactive Protein, Observed Values, Mean","[1]; Week 13 (Follow-up), N=5",9.1 mg/dL
same,"C-Reactive Protein, Observed Values, Median","[1]; Week 13 (Follow-up), N=5",0.4 mg/dL
same,"Pre-albumin, Change from Baseline, Mean","[1]; Week 13 (Follow-up), N=5",-8.4 mg/dL
same,"Pre-albumin, Change from Baseline, Median","[1]; Week 13 (Follow-up), N=5",0.0 mg/dL
same,"Pre-albumin, Observed Values, Mean","[1]; Week 13 (Follow-up), N=5",22.4 mg/dL
same,"Pre-albumin, Observed Values, Median","[1]; Week 13 (Follow-up), N=5",24.0 mg/dL
same,"Serum Albumin, Change from Baseline, Mean","[1]; Week 13 (Follow-up), N=6",-0.0 g/dL
same,"Serum Albumin, Change from Baseline, Median","[1]; Week 13 (Follow-up), N=6",-0.1 g/dL
same,"Serum Albumin, Observed Values, Mean","[1]; Week 13 (Follow-up), N=6",3.5 g/dL
same,"Serum Albumin, Observed Values, Median","[1]; Week 13 (Follow-up), N=6",3.5 g/dL
same,levels of C-Reactive Protein,[1]; after 13 weeks,continued to increase
same,levels of pre-albumin,[1]; after 13 weeks,decreased
same,serum albumin levels,[1]; after 13 weeks,stabilize and prevent a drop
same,"Skeletal Muscle Strength, Change from Baseline, Mean","[2]; Week 1 (Infusion 1), N=6",-1.7 kg
same,"Skeletal Muscle Strength, Change from Baseline, Median","[2]; Week 1 (Infusion 1), N=6",-1.5 kg
same,"Skeletal Muscle Strength, Observed Values, Mean","[2]; Week 1 (Infusion 1), N=6",38.5 kg
same,"Skeletal Muscle Strength, Observed Values, Median","[2]; Week 1 (Infusion 1), N=6",35.0 kg
same,"Skeletal Muscle Strength, Change from Baseline, Mean","[2]; Week 2 (Infusion 2), N=14",-1.4 kg
same,"Skeletal Muscle Strength, Change from Baseline, Median","[2]; Week 2 (Infusion 2), N=14",-2.0 kg
same,"Skeletal Muscle Strength, Observed Values, Mean","[2]; Week 2 (Infusion 2), N=14",34.6 kg
same,"Skeletal Muscle Strength, Observed Values, Median","[2]; Week 2 (Infusion 2), N=14",34.0 kg
same,"Skeletal Muscle Strength, Change from Baseline, Mean","[2]; Week 4 (Infusion 4), N=11",-4.1 kg
same,"Skeletal Muscle Strength, Change from Baseline, Median","[2]; Week 4 (Infusion 4), N=11",-2.0 kg
same,"Skeletal Muscle Strength, Observed Values, Mean","[2]; Week 4 (Infusion 4), N=11",31.5 kg
same,"Skeletal Muscle Strength, Observed Values, Median","[2]; Week 4 (Infusion 4), N=11",32.0 kg
same,"Skeletal Muscle Strength, Change from Baseline, Mean","[2]; Week 8 (Infusion 8), N=7",-2.4 kg
same,"Skeletal Muscle Strength, Change from Baseline, Median","[2]; Week 8 (Infusion 8), N=7",-2.0 kg
same,"Skeletal Muscle Strength, Observed Values, Mean","[2]; Week 8 (Infusion 8), N=7",30.0 kg
same,"Skeletal Muscle Strength, Observed Values, Median","[2]; Week 8 (Infusion 8), N=7",26.0 kg
same,"Skeletal Muscle Strength, Change from Baseline, Mean","[2]; Week 10 (Follow-up), N=6",1.8 kg
same,"Skeletal Muscle Strength, Change from Baseline, Median","[2]; Week 10 (Follow-up), N=6",-3.0 kg
same,"Skeletal Muscle Strength, Observed Values, Mean","[2]; Week 10 (Follow-up), N=6",33.7 kg
same,"Skeletal Muscle Strength, Observed Values, Median","[2]; Week 10 (Follow-up), N=6",30.0 kg
same,"Skeletal Muscle Strength, Change from Baseline, Mean","[2]; Week 13 (follow-up), N=4",6.3 kg
same,"Skeletal Muscle Strength, Change from Baseline, Median","[2]; Week 13 (follow-up), N=4",-1.0 kg
same,"Skeletal Muscle Strength, Observed Values, Mean","[2]; Week 13 (follow-up), N=4",32.5 kg
same,"Skeletal Muscle Strength, Observed Values, Median","[2]; Week 13 (follow-up), N=4",26.0 kg
same,"Skeletal Muscle Strength, Change from Baseline, Mean",[2]; [3],0.0 kg
same,"Skeletal Muscle Strength, Change from Baseline, Median",[2]; [3],0.0 kg
same,"Skeletal Muscle Strength, Observed Values, Mean",[2]; [3],35.1 kg
same,"Skeletal Muscle Strength, Observed Values, Median",[2]; [3],35.0 kg
same,skeletal muscle strength,[2]; beginning at week 8 and up to week 13,stabilize and improve
same,Skeletal Muscle Strength (voluntary),"[2]; patients 502-505, screening (week <1) to week 8 (last infusion cycle)",Small increase
